Reference: patent US5288709A, “Erythromycin derivatives” (priority 1991, dated 1994)
Converted amounts (≈) assume the structure as drawn. Read-outs that look alike come from different tables or passages of the source.

Assays:
Assay in all cases: In-vitro antimicrobial activity primary screen (agar dilution MIC)
Type in all cases: cell-based
[1] = test system: Acinetobacter SP CMX 669; conditions: SPCMX669; Acinetobacter SP CMX 669; BHI agar, 20-24 h; read-out: MIC
Experimental: (§1) The antimicrobial spectra of several of the compounds of the present invention were tested as described below.
(§2) Twelve petri dishes containing successive aqueous dilutions of the test compounds, mixed with 10 mL of sterilized Brain Heart Infusion (BHI) agar (Difco 0418-01-5), were prepared. Each plate was inoculated with 1:100 (or 1:10 for slow growing strains (primarily Micrococcus and Streptococcus) dilutions of up to 32 different microorganisms, using a Steers replicator block. The inoculated plates were incubated at 35 37° C. for 20-24 hours. In addition, a control plate, using BHI agar containing no test compound, was prepared and incubated at the beginning and the end of each test.
(§3) An additional plate containing a compound having known susceptibility patterns for the organisms being tested and belonging to the same antibiotic class as the test compounds was also prepared and incubated as a further control, as well as to provide test-to test comparability.
(§4) After incubation, each plate was read. The MIC (minimum inhibitory concentration) is defined as the lowest concentration of test compound yielding no growth, a slight haze, or sparsely isolated colonies on the inoculum spot as compared to the growth control containing no test compound.

[2] = test system: Enterobacter aerogenes ATCC 13048; conditions: Klebsiella aerogenes, ATCC13048; Enterobacter aerogenes ATCC 13048; BHI agar, 20-24 h; read-out: MIC
Experimental: as §1, §2, §3, §4

[3] = test system: Enterococcus faecium ATCC 8043
Experimental: as §1, §2, §3, §4

[4] = test system: Escherichia coli DC-2; conditions: DC2; Escherichia coli DC-2; BHI agar, 20-24 h; read-out: MIC
Experimental: as §1, §2, §3, §4

[5] = test system: Escherichia coli H560; conditions: Escherichia coli H560; BHI agar, 20-24 h; read-out: MIC
Experimental: as §1, §2, §3, §4

[6] = test system: Escherichia coli JUHL; conditions: Escherichia coli JUHL; BHI agar, 20-24 h; read-out: MIC
Experimental: as §1, §2, §3, §4

[7] = test system: Escherichia coli SS; conditions: BHI agar, 20-24 h
Experimental: as §1, §2, §3, §4

[8] = test system: Klebsiella pneumoniae ATCC 8045; conditions: ATCC8045; Klebsiella pneumoniae ATCC 8045; BHI agar, 20-24 h; read-out: MIC
Experimental: as §1, §2, §3, §4

[9] = test system: Micrococcus luteus ATCC 4698; conditions: 20-24 h
Experimental: as §1, §2, §3, §4

[10] = test system: Micrococcus luteus ATCC 9341; conditions: 20-24 h
Experimental: as §1, §2, §3, §4

[11] = test system: Providencia stuartii CMX 640; conditions: CMX640; Providencia stuartii CMX 640; BHI agar, 20-24 h; read-out: MIC
Experimental: as §1, §2, §3, §4

[12] = test system: Pseudomonas aeruginosa A5007; conditions: Pseudomonas aeruginosa A5007; BHI agar, 20-24 h; read-out: MIC
Experimental: as §1, §2, §3, §4

[13] = test system: Pseudomonas aeruginosa BMH10; conditions: BHI agar, 20-24 h, read-out: MIC
Experimental: as §1, §2, §3, §4

[14] = test system: Pseudomonas aeruginosa K799/61
Experimental: as §1, §2, §3, §4

[15] = test system: Pseudomonas aeruginosa K799/WT; conditions: Pseudomonas aeruginosa K799/WT; BHI agar, 20-24 h; read-out: MIC
Experimental: as §1, §2, §3, §4

[16] = test system: Pseudomonas cepacia 2961; conditions: Burkholderia cepacia, BHI agar, 20-24 h, read-out: MIC
Experimental: as §1, §2, §3, §4

[17] = test system: Staphylococcus aureus 45 RAR2; conditions: Staphylococcus aureus, 45RAR2, 24 h, BHI agar, 20-24 h
Experimental: as §1, §2, §3, §4

[18] = test system: Staphylococcus aureus 45; conditions: BHI agar, 20-24 h
Experimental: as §1, §2, §3, §4

[19] = test system: Staphylococcus aureus A5177; conditions: Staphylococcus aureus A5177, BHI agar, 20-24 h
Experimental: as §1, §2, §3, §4

[20] = test system: Staphylococcus aureus ATCC 6538P; conditions: Staphylococcus aureus, ATCC6538P, 24 h, BHI agar, 20-24 h
Experimental: as §1, §2, §3, §4

[21] = test system: Staphylococcus epidermidis 3519; conditions: Staphylococcus epidermidis, 3519, 24 h, BHI agar, 20-24 h
Experimental: as §1, §2, §3, §4

[22] = test system: Streptococcus agalactiae CMX 508; conditions: 20-24 h
Experimental: as §1, §2, §3, §4

[23] = test system: Streptococcus bovis A5169; conditions: Streptococcus equinus, BHI agar, 20-24 h, read-out: MIC
Experimental: as §1, §2, §3, §4

[24] = test system: Streptococcus pyrogenes 2548 INDUC; conditions: BHI agar, 20-24 h
Experimental: as §1, §2, §3, §4

[25] = test system: Streptococcus pyrogenes EES61; conditions: BHI agar, 20-24 h, read-out: MIC
Experimental: as §1, §2, §3, §4

[26] = test system: Staphylococcus aureus CMX 503A; conditions: Staphylococcus aureus, CMX503A, 24 h, BHI agar, 20-24 h, read-out: MIC
Experimental: as §1, §2
as §3, with “comparability. Erythromycin A was used for this purpose.” for “comparability.”
as §4

[27] = test system: Staphylococcus aureus CMX 553; conditions: Staphylococcus aureus, CMX553, 24 h, BHI agar, 20-24 h, read-out: MIC
Experimental: as §1, §2
as §3, with “comparability. Erythromycin A was used for this purpose.” for “comparability.”
as §4

[28] = test system: Staphylococcus aureus CMX 686B; conditions: CMX686B, BHI agar, 20-24 h, read-out: MIC
Experimental: as §1, §2
as §3, with “comparability. Erythromycin A was used for this purpose.” for “comparability.”
as §4

CC[C@H]1OC(=O)[C@H](C)[C@@H](O[C@H]2C[C@@](C)(OC)[C@@H](NS(C)(=O)=O)[C@H](C)O2)[C@H](C)[C@@H](O[C@@H]2O[C@H](C)C[C@H](N(C)C)[C@H]2O)[C@](C)(O)C[C@@H](C)[C@@H]2O[C@@]1(C)C(=O)[C@H]2C [Example 16, (4"S,9S)-9-Deoxo-4",11,12-trideoxy-9,12-epoxy-4"-(methylsulfonyl)amino-11-oxerythromycin A]
MIC [1]: 50 µg/mL (≈ 63 µM) | MIC [2]: > 100 µg/mL | MIC ([3]; ATCC8043, Enterococcus faecium ATCC 8043, BHI agar, 20-24 h, read-out: MIC): 0.05 µg/mL (≈ 0.063 µM) | MIC [4]: > 100 µg/mL | MIC [5]: > 100 µg/mL | MIC [6]: > 100 µg/mL | MIC ([7]; Escherichia coli, 24 h): 0.39 µg/mL (≈ 0.492 µM) | MIC [8]: > 100 µg/mL | MIC ([9]; ATCC4698, BHI agar, read-out: MIC): 0.05 µg/mL (≈ 0.063 µM) | MIC ([10]; Micrococcus luteus, ATCC9341, 24 h, BHI agar): 0.02 µg/mL (≈ 0.0252 µM) | MIC [11]: > 100 µg/mL | MIC [12]: > 100 µg/mL | MIC [13]: 100 µg/mL (≈ 126 µM) | MIC ([14]; Pseudomonas aeruginosa, K799/61, 24 h): 3.1 µg/mL (≈ 3.91 µM) | MIC [15]: 100 µg/mL (≈ 126 µM) | MIC [16]: > 100 µg/mL | MIC [17]: 0.78 µg/mL (≈ 0.984 µM) | MIC ([18]; Staphylococcus aureus, 45, 24 h): 0.39 µg/mL (≈ 0.492 µM) | MIC ([19]; Staphylococcus aureus, A5177, 24 h): 0.39 µg/mL (≈ 0.492 µM) | MIC [20]: 0.39 µg/mL (≈ 0.492 µM) | MIC [21]: 0.39 µg/mL (≈ 0.492 µM) | MIC ([22]; CMX508, BHI agar, read-out: MIC): 0.02 µg/mL (≈ 0.0252 µM) | MIC [23]: < 0.005 µg/mL | MIC ([24]; Streptococcus, 2548INDUC, 24 h): 3.1 µg/mL (≈ 3.91 µM) | MIC [25]: < 0.005 µg/mL | MIC [26]: 0.39 µg/mL (≈ 0.492 µM) | MIC [27]: 0.39 µg/mL (≈ 0.492 µM) | MIC [28]: 0.39 µg/mL (≈ 0.492 µM)

CC[C@H]1OC(=O)[C@H](C)[C@@H](O[C@H]2C[C@@](C)(OC)[C@H](NC(=O)OCc3ccccc3)[C@H](C)O2)[C@H](C)[C@@H](O[C@@H]2O[C@H](C)C[C@H](N(C)C)[C@H]2O)[C@](C)(O)C[C@@H](C)[C@@H]2O[C@@]1(C)C(=O)[C@H]2C [Example 7, (4"R,9S)-9-Deoxo-4",11,12-trideoxy-9,12-epoxy-11-oxo-4"-[[(phenylmethoxy)carbonyl]amino]erythromycin A]
MIC [2]: 100 µg/mL (≈ 118 µM) | MIC ([3]; Enterococcus faecium, ATCC8043, 24 h): 0.1 µg/mL (≈ 0.118 µM) | MIC [4]: 100 µg/mL (≈ 118 µM) | MIC [6]: > 100 µg/mL | MIC ([7]; read-out: MIC): 1.56 µg/mL (≈ 1.84 µM) | MIC [8]: 100 µg/mL (≈ 118 µM) | MIC ([9]; Micrococcus luteus, ATCC4698, 24 h, BHI agar): 0.2 µg/mL (≈ 0.236 µM) | MIC ([10]; ATCC9341, BHI agar, read-out: MIC): 0.05 µg/mL (≈ 0.0589 µM) | MIC [11]: > 100 µg/mL | MIC [12]: > 100 µg/mL | MIC [13]: 100 µg/mL (≈ 118 µM) | MIC ([14]; Pseudomonas aeruginosa K799/61, BHI agar, 20-24 h, read-out: MIC): 0.78 µg/mL (≈ 0.919 µM) | MIC [15]: 100 µg/mL (≈ 118 µM) | MIC [16]: > 100 µg/mL | MIC [17]: 0.39 µg/mL (≈ 0.459 µM) | MIC ([18]; read-out: MIC): 0.2 µg/mL (≈ 0.236 µM) | MIC ([19]; read-out: MIC): 0.39 µg/mL (≈ 0.459 µM) | MIC [20]: 0.2 µg/mL (≈ 0.236 µM) | MIC [21]: 0.39 µg/mL (≈ 0.459 µM) | MIC ([22]; Streptococcus agalactiae, CMX508, 24 h, BHI agar): 0.05 µg/mL (≈ 0.0589 µM) | MIC [23]: 0.1 µg/mL (≈ 0.118 µM) | MIC ([24]; read-out: MIC): 0.39 µg/mL (≈ 0.459 µM) | MIC [25]: 0.1 µg/mL (≈ 0.118 µM) | MIC [26]: 0.2 µg/mL (≈ 0.236 µM) | MIC [27]: 0.2 µg/mL (≈ 0.236 µM) | MIC [28]: 0.2 µg/mL (≈ 0.236 µM)
